# Source: patent US4756710A, “pH-Mediated drug delivery system” (Merck & Co., Inc., priority 1986, dated 1988)
# Where a name gives a salt, the structure may show the parent alone. Read-outs that look alike come from different tables or passages of the source.
# Columns and labels:
# [1] = in water at 25° C.; reported; cited from earlier work
# [2] = from equation (1); 30 percent ethanol/water; polyurethane membrane 0.0038 cm
# [3] = Solubility in mineral oil; format: physicochemical
# [4] = format: physicochemical; details: not told
# Method: Several pH controlled reservoir systems were prepared in a similar manner employing non-aqueous or aqueous glycol vehicles and different buffering agents. For this example, sorbitol USP and 70 percent aqueous propylene glycol were employed. The pH was adjusted with either Na2 HPO4 or Na2 CO3. pH measurements were made on a pH meter with a standard glass electrode and the flux determined in a diffusion cell employing a mineral oil soaked Celgard membrane to separate the buffered reservoir from the receptor phase.
# [5] = Solubility of timolol maleate in pH controlled glycol reservoir vehicles; format: physicochemical
# [6] = Concentration of timolol base in aqueous buffer solutions calculated with the Henderson-Hasselbalch equation; format: physicochemical; details: pH 9.0; 15 mg/ml timolol maleate in aqueous buffer
# Source text: where T is the time lag. Thus, after determining T, D may be calculated. By experimentally determining flux, and substituting in equation (1), K may be obtained. Having thus determined K and D, the desired flux may be achieved by making appropriate modifications of the pH, thereby the concentration, and/or the thickness of the membrane. The appropriate modifications in pH may be arrived at by preparing a series of buffer solutions containing a known quantity of the salt form of drug at various pH values and substituting in the Henderson-Hasselbalch equation, [formula] C, the concentration of the unionized form, may be calculated.
# [7] = Source text: The following operation illustrates with timolol the relationship among pH, the concentration C, of the timolol base in solution in the reservoir, and the flux calculated from the data as well as the observed flux obtained by placing the compositions behind the selected membrane in a diffusion cell and measuring the rate of release into an isotonic phosphate buffer of pH 7.4.
# As a first step in determining the relationship between pH, concentration of timolol, its pK and the pH of the reservoir, an aqueous solution of 7.0 mg/ml of timolol was placed in a diffusion measuring cell fitted with a 1.5 mil (0.0038 cm) thick silicone membrane and the transport of timolol from the reservoir of the test cell to an isotonic pH 7.4 receptor phase was measured over a period of about eight hours by sampling the solution in the receptor phase, assaying this solution for drug by direct ultraviolet assay method and calculating the drug concentration over time, thereafter plotting the drug diffused per square centimeter versus time and calculating the regression line.
# From the calculated concentration of the timolol base, the previously determined values for D and K and the known thickness of the membrane, the steady state flux was calculated (equation (1)). Thereafter, the steady state flux was determined experimentally by measuring the transport of timolol at each pH from the buffer system into an isotonic receptor phase through the silicone membrane.
smiles,measurement,setting,value
CC1=C(CC(=O)O)c2cc(F)ccc2/C1=C\c1ccc([S+](C)[O-])cc1 (centres unmarked) [sulindac],pKa,[1],4.7
same,product KD,[2],9.38×10^-4 cm^2 /hr
CC(C)(C)NC[C@H](O)COc1nsnc1N1CCOCC1 [timolol maleate],solubility in mineral oil,[3],substantially insoluble
same,Jobs (flux),[4]; pH 6.9,6.7 mcg/cm^2 /hr
same,Jobs (flux),[4]; pH 7.6,7.4 mcg/cm^2 /hr
same,Jobs (flux),[4]; pH 9.6,2.8 mcg/cm^2 /hr
same,solubility,"[5]; 70% propylene glycol + na2co3, organic solvent or mixture, 70% Propylene glycol +Na2 CO3, apparent pH 7.6",124 mg/mL
same,solubility,"[5]; sorbitol usp + na2co3, Sorbitol USP +Na2 CO3, apparent pH 9.6",0.7 mg/mL
same,solubility,"[5]; sorbitol usp + na2hpo4, Sorbitol USP +Na2 HPO4, apparent pH 6.9",17.2 mg/mL
CC(C)(C)NC[C@H](O)COc1nsnc1N1CCOCC1 [timolol],Cs Timolol Base,[6],4210 µg/mL
same,"partition coefficient between drug reservoir and membrane, K",[7],2.05
same,"time lag, T","[7]; aqueous solution of 7.0 mg/ml timolol, 1.5 mil silicone membrane, plot extrapolated to time axis",0.0096 h
same,"drug diffusion coefficient in the membrane, D","[7]; silicone membrane, from equations (1) and (2)",2.5×10^-4 cm^2 /hr
same,solubility,"[3]; organic solvent or mixture, 32° C.",~7 mg/mL
